Measured values taken from ChEMBL document CHEMBL4190163 (2016).
Activity calls are given as the source filed them. The calls are words filed in the database; no cut-off is given here.

How the values were obtained:
[1] = system: MIA PaCa-2; assay: Cytotoxicity against human MIAPaCa2 cells after 48 hrs by MTS assay; type: functional; settings: MIA PaCa-2, 48 h
[2] = system: BT-474; assay: Cytotoxicity against human BT474 cells after 48 hrs by MTS assay; type: functional; settings: BT-474, 48 h
[3] = system: MDA-MB-231; assay: Cytotoxicity against human MDA-MB-231 cells after 48 hrs by MTS assay; type: functional; settings: MDA-MB-231, 48 h
[4] = system: PC-3; assay: Cytotoxicity against human PC3 cells after 48 hrs by MTS assay; type: functional; settings: PC-3, 48 h
[5] = system: JIMT-1; assay: Cytotoxicity against human JIMT1 cells after 48 hrs by MTS assay; type: functional; settings: JIMT-1, 48 h
[6] = system: DU-145; assay: Cytotoxicity against human DU145 cells after 48 hrs by MTS assay; type: functional; settings: DU-145, 48 h
[7] = system: BT-474; assay: Cytotoxicity against human BT474 cancer stem cell spheroids assessed as reduction in cell viability at 5 to 10 uM after 5 to 6 days by MTS assay; type: functional
[8] = system: DU-145; assay: Cytotoxicity against human DU145 cancer stem cell spheroids assessed as reduction in cell viability at 5 to 10 uM after 5 to 6 days by MTS assay; type: functional
[9] = system: BT-474; assay: Disruption of preformed spheroids in human BT474 cancer stem cells at 5 to 10 uM after 4 days by microscopic analysis; type: functional
[10] = system: DU-145; assay: Disruption of preformed spheroids in human DU145 cancer stem cells at 5 to 10 uM after 4 days by microscopic analysis; type: functional
[11] = system: BT-474; assay: Disruption of preformed spheroids in human BT474 cancer stem cells at 20 uM after 3 days by microscopic analysis; type: functional, cell-based
[12] = system: DU-145; assay: Disruption of preformed spheroids in human DU145 cancer stem cells at 20 uM after 3 days by microscopic analysis; type: functional, cell-based
[13] = system: DU-145; assay: Cytotoxicity against human DU145 cancer stem cell spheroids assessed as reduction in cell viability up to 20 uM after 3 to 5 days by MTS assay; type: functional, cell-based
[14] = system: BT-474; assay: Cytotoxicity against human BT474 cancer stem cell spheroids assessed as reduction in cell viability up to 20 uM after 3 to 5 days by MTS assay; type: functional, cell-based
[15] = system: DU-145; assay: Disruption of preformed spheroids in human DU145 cancer stem cells at 7.5 uM after 3 days by microscopic analysis; type: functional, cell-based
[16] = system: BT-474; assay: Disruption of preformed spheroids in human BT474 cancer stem cells at 7.5 uM after 3 days by microscopic analysis; type: functional, cell-based
[17] = system: BT-474; assay: Cytotoxicity against human BT474 cancer stem cell spheroids assessed as reduction in cell viability at 5 uM after 5 to 6 days by MTS assay; type: functional
[18] = system: DU-145; assay: Cytotoxicity against human DU145 cancer stem cell spheroids assessed as reduction in cell viability at 5 uM after 5 to 6 days by MTS assay; type: functional
[19] = system: DU-145; assay: Potency index, ratio of salinomycin CC50 to test compound CC50 for human DU145 cells; type: functional
[20] = system: MDA-MB-231; assay: Potency index, ratio of salinomycin CC50 to test compound CC50 for human MDA-MB-231 cells; type: functional
[21] = system: MIA PaCa-2; assay: Potency index, ratio of salinomycin CC50 to test compound CC50 for human MIAPaCa2 cells; type: functional
[22] = system: BT-474; assay: Potency index, ratio of salinomycin CC50 to test compound CC50 for human BT474 cells; type: functional

Row | SMILES | CC50 [1] [µM] | CC90 [1] [µM] | CC50 [2] [µM] | CC90 [2] [µM] | CC50 [3] [µM] | CC90 [3] [µM] | CC50 [4] [µM] | CC90 [4] [µM] | CC50 [5] [µM] | CC90 [5] [µM] | CC50 [6] [µM] | CC90 [6] [µM] | further results
1 | CCCCCCCCCCCCCCCCOC[C@H](CN=[N+]=[N-])O[C@@H]1O[C@H](CO)[C@@H](O)[C@H](O)[C@H]1N | 11.5 | 18.5 | 22 | 28 | 11 | 15 | 6 | 15 | 9.5 | 13.5 | 12.5 | 18 | 
2 | CCCCCCCCCCCCCCCCOC[C@@H](N)CO[C@@H]1O[C@H](CO)[C@@H](O)[C@H](O)[C@H]1N | 8.5 | 14 | 15.5 | 28 | 6 | 9 | 9 | 14 | 5.5 | 7.5 | 6 | 9 | Activity [7]: 100%; Activity [8]: 100%; Activity [9]: 100%; Activity [10]: 100%
3 | CCCCCCCCCCCCCCCCOC[C@H](CO[C@@H]1O[C@H](CO)[C@@H](O)[C@H](O)[C@H]1N)NC(=O)OC | 18 | 29 | 23 | 29 | 16 | 19 | 20 | 29 | 12.5 | 15 | 14 | 19 | 
4 | CCCCCCCCCCCCCCCCOC[C@H](CO[C@@H]1O[C@H](CO)[C@@H](O)[C@H](O)[C@H]1N)NC(=O)CCCCCCCCCCCCCCC |  |  |  |  | > 30 |  |  |  |  |  |  |  | 
5 | CCCCCCCCCCCCCCCCOC[C@@H](CO[C@@H]1O[C@H](CO)[C@@H](O)[C@H](O)[C@H]1N)OC | 9 | 18 | 8 | 13 |  |  | 13.5 | 28 | 9 | 16 | 10 | 15 | 
6 | CCCCCCCCCCCCCCCCOC[C@@H](CO[C@@H]1O[C@H](CN)[C@@H](O)[C@H](O)[C@H]1N)OC | 7 | 12 | 11.5 | 14 | 5.5 | 7 | 11 | 14 | 4.2 | 6.5 | 6 | 8.5 | Activity [7]: 100%; Activity [8]: 100%; Activity [9]: 100%; Activity [10]: 100%
7 | CCCCCCCCCCCCCCN |  |  |  |  |  |  |  |  |  |  |  |  | Activity [11]: inactive; Activity [12]: inactive; Activity [13]: inactive; Activity [14]: inactive
8 | CCCCCCCCCCCCCCCCOC[C@@H](CO[C@@H]1O[C@H](CN)[C@@H](O)[C@H](O)[C@H]1N1C(=O)c2ccccc2C1=O)OC |  |  |  |  | 20 |  | 15 |  |  |  | > 30 |  | 
9 | CCCCCCCCCCCCCCCCOC[C@H](CO[C@@H]1O[C@H](CN)[C@@H](O)[C@H](O)[C@H]1N)O[C@@H]1O[C@H](CN)[C@@H](O)[C@H](O)[C@H]1N |  |  |  |  | > 30 |  |  |  |  |  |  |  | 
10 | CC[C@@H](C(=O)[C@@H](C)[C@@H](O)[C@H](C)[C@@H]1O[C@@H]([C@@H](CC)C(=O)O)CC[C@@H]1C)[C@H]1O[C@]2(C=C[C@@H](O)[C@]3(CC[C@@](C)([C@H]4CC[C@](O)(CC)[C@H](C)O4)O3)O2)[C@H](C)C[C@@H]1C [SALINOMYCIN] | 6.5 |  | 14 |  | > 20 |  |  |  |  |  | > 20 |  | Activity [15]: Active; Activity [16]: Active
11 | CCCCCCCCCCCCCCCCOC[C@H](CN)O[C@@H]1O[C@H](CO)[C@@H](O)[C@H](O)[C@H]1N | 15 | 28 | 25 | > 30 | 12 | 17.5 | 9.5 | 17 | 14 | 19 | 17.5 | 25 | 
12 | O=C(O)CCCc1ccc(N(CCCl)CCCl)cc1 [CHLORAMBUCIL] |  |  |  |  | > 150 |  |  |  |  |  |  |  | 
13 | CCCCCCCCCCCCCCCCOCCCO[C@@H]1O[C@H](CN)[C@@H](O)[C@H](O)[C@H]1N | 6.5 | 13 | 8.5 | 17.5 | 4.5 | 7 | 8 | 14 | 4 | 6 | 6 | 8.5 | Activity [17]: >95%; Activity [18]: >95%; Activity [7]: 100%; Activity [8]: 100%; Activity [9]: 100%; Activity [10]: 100%
14 | CCCCCCCCCCCCCCCCOC[C@@H](CO[C@H]1O[C@H](CN)[C@@H](O)[C@H](O)[C@H]1N)OC | 3.5 | 6.5 | 7.5 | 9.5 | 3 | 4.5 | 3.5 | 6 | 3.5 | 4.9 | 5.2 | 7.4 | Activity [17]: >95%; Activity [18]: >95%; Activity [7]: 100%; Ratio [19]: >4; Ratio [20]: >6; Activity [8]: 100%; Activity [9]: 100%; Activity [10]: 100%; Ratio [21]: 2; Ratio [22]: 2
